Experimental data reported in PubChem BioAssay AID850 (SRMLSC, 2007).
Activity calls are given as the source filed them. The rule behind the calls is not given here.

Legend:
[1] = concentration-response yeast growth inhibition under permissive conditions, counter-assay for yeast lifespan-shortening chemical project (AID 850); conditions: Saccharomyces cerevisiae growth inhibition, permissive control, measured here: maximum growth inhibition, stronger effect = higher value;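 note: growth read as optical density after one day of incubation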
[2] = test system: Saccharomyces cerevisiae growth inhibition, permissive control; experiment: as above

Row | Structure (SMILES) | inhibition ([1]; at 50 µM) | IC50 [2] | also measured
1 | CCc1cccc2c(C(=O)COC(=O)c3ccc([N+](=O)[O-])s3)c[nH]c12 | 99.4% | 28 µM | –
2 | Cc1cc(-c2n[nH]c(=S)n2/N=C/c2cc([N+](=O)[O-])ccc2Cl)n[nH]1 | – | > 100 µM (inactive) | inhibition ([1]; at 0.781 µM): -1.78%
3 | O=C(c1ccccc1)c1ccc2nc(N3CCCCC3)c3nncn3c2c1 | – | > 100 µM (inactive) | inhibition ([1]; at 0.195 µM): 14.9%
4 | Nc1nsc2ccccc12 | 63.5% | 35.8 µM | –
5 | O=C(O)c1cc2c(s1)-c1ccccc1OC2 | – | > 100 µM (inactive) | inhibition ([1]; at 0.195 µM): 15.9%
6 | CCOC(=O)C1C(C)N=C2SCC(=O)N2C1c1cccc(Br)c1 (stereo unspecified) | – | > 100 µM (inactive) | inhibition ([1]; at 12.5 µM): 12.2%
7 | S=C1SCN(Cc2ccccn2)CN1Cc1ccco1 | 55.7% | 43.4 µM | –
8 | COc1ccc(/C=C2/C(=O)ON=C2c2ccccc2)cc1OC | – | > 100 µM (inactive) | inhibition ([1]; at 25 µM): 27.4%
9 | Cc1cc([N+](=O)[O-])ccc1-c1ccc(C2Nc3ccccc3C(=O)N2O)o1 (stereo unspecified) | – | > 100 µM (inactive) | inhibition ([1]; at 0.781 µM): 3.97%
10 | CN(c1ccc(O)cc1)c1nc(-c2ccccc2)cs1 | – | > 100 µM (inactive) | inhibition ([1]; at 0.781 µM): 9.5%
11 | Cc1ccc2c(c1)c1c(n2C)-c2[nH]ncc2CC1 | 71.1% | 38.2 µM | –
12 | Oc1ccc(Cl)cc1Cc1cc(Cl)ccc1O | 99% | 25.8 µM | –
13 | COc1cccc(CC(=O)Nc2ccc3nc(C)sc3c2)c1 | 96.5% | 16 µM | –
14 | COc1ccccc1-n1c(=O)oc2ccc(Cl)cc2c1=O | – | > 100 µM (inactive) | inhibition ([1]; at 6.25 µM): -0.76%
15 | Cc1cccc(OCCCCc2c(C)n[nH]c2C)c1C | 76.5% | 32 µM | –
16 | O=C1OCC(CO)(CO)N=C1NNc1ccc(Cl)c(Cl)c1 | 98.6% | 1.6 µM | –
17 | O=C(N/N=C/c1cc2c3c(c1O)CCCN3CCC2)c1ccccc1O | 49.5% | 48.1 µM | –
18 | Oc1c(Br)cc(Br)cc1Oc1ccc(Br)cc1Br | – | > 100 µM (inactive) | inhibition ([1]; at 3.125 µM): 4.84%
19 | O=C(O)CCn1cc(/C=C/C(=O)c2ccc(Cl)cc2)c(-c2ccc(Br)cc2)n1 | – | > 100 µM (inactive) | inhibition ([1]; at 12.5 µM): 15.3%
20 | Clc1ccc(CSC(Cn2ccnc2)c2ccc(Cl)cc2Cl)cc1 (stereo unspecified) | 99.4% | 0.365 µM | –
21 | Cc1c(N=Cc2cc(Br)cc(Br)c2O)cccc1C(=O)O | 99% | 6.96 µM | –

Row | Structure (SMILES) | inhibition ([1]; at 50 µM) | IC50 [2] | also measured
22 | Cc1ccc(C(=O)OCn2ncc(Cl)c(Cl)c2=O)cc1 | 85.2% | 36.4 µM | –
23 | C=C(C)COc1ccc(-c2[nH]ncc2-c2ccc(Br)cc2)c(O)c1 | – | > 100 µM (inactive) | inhibition ([1]; at 25 µM): 15.9%
24 | Cc1ccc(N/N=C/c2cccnc2)cc1 | 97% | 13 µM | –
25 | Brc1ccccc1-c1nnc(CSc2nnc3sc4ccccc4n23)o1 | – | > 100 µM (inactive) | inhibition ([1]; at 6.25 µM): 13.3%
26 | O=C(Nc1nnc(-c2ccc(F)cc2)o1)c1cc(Cl)sc1Cl | 81.8% | 36.8 µM | –
27 | COc1ccc(-c2nncnn2)cc1 | 99.8% | 7.1 µM | –
28 | O=[N+]([O-])c1cc(Cc2ccccc2)cc(C=Nc2ccc(N3CCOCC3)cc2)c1O | – | 15 µM | inhibition ([1]; at 25 µM): 82.7%
29 | O=C(CC(=O)c1ccccc1O)c1ccc(F)cc1 | – | 30.1 µM | inhibition ([1]; at 25 µM): 37%
30 | CCC(C)N1CC23C=CC(O2)C(C(=O)OC)C3C1=O (stereo unspecified) | – | > 100 µM (inactive) | inhibition ([1]; at 0.098 µM): 10.6%
31 | Cc1ccc(-c2nnc3ccc(SC(C)C(=O)O)nn23)cc1 (stereo unspecified) | – | > 100 µM (inactive) | inhibition ([1]; at 6.25 µM): 10.5%
32 | Cc1ccc(C(=O)O/N=C/c2c(N3CCOCC3)n(C)c3ccccc23)cc1 | – | > 100 µM (inactive) | inhibition ([1]; at 6.25 µM): 18.7%
33 | Cn1c(C(=O)N2CCC(C(=O)N3CCN(Cc4ccc5c(c4)OCO5)CC3)CC2)cc2sccc21 | – | > 100 µM (inactive) | inhibition ([1]; at 12.5 µM): 18%
34 | O=C1c2ccccc2NC(c2ccc(-c3ccc(Br)cc3)o2)N1O (stereo unspecified) | 99% | 18.9 µM | –
35 | O=C1C(=C2CCCCC2)SC(=S)N1Cc1ccco1 | 11.2% | > 100 µM (inactive) | –
36 | Cc1ccc(-n2cnc3cc(NCc4cccs4)ccc32)cc1 | 53.2% | 45.8 µM | –
37 | O=[N+]([O-])c1cccc(/C=N/n2cnnc2)c1O | 76.8% | 21 µM | –
38 | CC(=O)NC(=S)c1c(N)n(Cc2ccccc2)c(=O)n(C)c1=O | – | > 100 µM (inactive) | inhibition ([1]; at 3.125 µM): 7.99%
39 | O=C1c2ccccc2C(=O)N1Cc1ccco1 | – | > 100 µM (inactive) | inhibition ([1]; at 25 µM): 8.88%
40 | Cn1c(SCC(=O)Nc2ccccc2)nc(O)cc1=O | 76.2% | 33.2 µM | –
41 | Cc1ccc(OC(=S)Nc2ccc(O)cc2)cc1 | 99.6% | 16.3 µM | –
42 | O=C(Nc1cccc(N=Cc2cc(Cl)cc(Br)c2O)c1)c1ccco1 | 89.6% | 25.8 µM | –

Row | Structure (SMILES) | inhibition ([1]; at 50 µM) | IC50 [2] | also measured
43 | CC(Oc1ccc2ccccc2c1)C(=O)NNC(=S)NC(=O)c1ccco1 (stereo unspecified) | 98.6% | 11.3 µM | –
44 | CN1CCN(C2=Cc3ccc(Cl)cc3Sc3ccc(F)cc32)CC1 | 99.8% | 27.2 µM | –
45 | C=CCSc1nnc2nc3c(nn12)c1cc(C)ccc1n3CC=C | – | > 100 µM (inactive) | inhibition ([1]; at 25 µM): 16.6%
46 | CCOC(=O)c1ccc(-n2[nH]c(-c3ccccc3)cc2=O)cc1 | – | 47.7 µM | inhibition ([1]; at 12.5 µM): 47.7%
47 | O=C(/C=C/c1ccccc1)c1cc(Br)ccc(=O)c1O | 98.8% | 12.2 µM | –
48 | O=C1NC(=S)N(c2ccccc2F)C(=O)/C1=C\c1cccs1 | 91.4% | 13.6 µM | –
49 | Cc1cc(=O)[nH]c(SCc2nc3ccccc3s2)n1 | – | > 100 µM (inactive) | inhibition ([1]; at 25 µM): 13%
50 | CCN1/C(=C/c2ccc3cc(C)ccc3[n+]2CC)Sc2ccccc21 | 99.4% | 3.44 µM | –
51 | Cc1ccc(/C(N)=N/OC(=O)c2ccc(Cl)cc2Cl)cc1 | 98.8% | 19.8 µM | –
52 | COc1ccccc1-c1nnc(NC(=O)C(C)SC2=NCCS2)s1 (stereo unspecified) | – | > 100 µM (inactive) | inhibition ([1]; at 12.5 µM): 16.8%
53 | COc1ccccc1OCCCc1c(C)n[nH]c1C | 100% | 5.76 µM | –
54 | CCOC(=O)/C(=N\Nc1cccc(C(F)(F)F)c1)N(CCOC)CCOC | – | > 100 µM (inactive) | inhibition ([1]; at 12.5 µM): -1.36%
55 | O=C1ON=C(c2ccccc2)/C1=C/c1ccc(OS(=O)(=O)c2ccccc2)cc1 | 11.6% | > 100 µM (inactive) | –
56 | Cc1ccc(-n2c(Cl)c(Cl)nc(Cl)c2=O)cc1 | 102% | 14 µM | –
57 | Cc1ccc(C(=O)CSC2=NC(N)=C(C#N)C3(CCCCC3)C2C(N)=O)cc1 (stereo unspecified) | – | > 100 µM (inactive) | inhibition ([1]; at 1.563 µM): 18.2%
58 | C/C(=N\Nc1nc2c(s1)CCCC2)c1ccccc1 | 99.1% | 28.2 µM | –
59 | CC(=O)NC(CCS(C)(=O)=O)C(=O)Nc1ccc2c(c1)OCO2 (stereo unspecified) | – | > 100 µM (inactive) | inhibition ([1]; at 1.563 µM): -0.58%
60 | c1ccc(Cc2nnc3sc(-c4ccc5c(c4)OCCO5)nn23)cc1 | – | > 100 µM (inactive) | inhibition ([1]; at 1.563 µM): 14.5%
61 | O=C(CSC1=NCCS1)N1CCN(c2ccc(Cl)cc2)CC1 | 20.7% | > 100 µM (inactive) | –
62 | NC(N)=N/N=C/c1ccc(OCc2ccc(Cl)cc2Cl)cc1 | 101% | 28.1 µM | –
63 | CCOC(=O)C(=NC(C)CC)NNc1ccc(Br)cc1 (stereo unspecified) | 97.4% | 4.03 µM | –

Row | Structure (SMILES) | inhibition ([1]; at 50 µM) | IC50 [2] | also measured
64 | CCc1ccc2c(c1)C1(NN=C(c3ccccc3)S1)C(=O)N2 (stereo unspecified) | 97.5% | 27.5 µM | –
65 | Cc1c(C=O)c2ccccn2c1C(=O)c1ccncc1 | 10.7% | > 100 µM (inactive) | –
66 | O=C(/C(=N/N=C/c1ccc(O)c(O)c1O)c1ccccc1)c1ccccc1 | – | > 100 µM (inactive) | inhibition ([1]; at 0.781 µM): 5.74%
67 | COc1cccc(/C=N/Nc2ncc(C(F)(F)F)cc2Cl)c1O | 29.3% | > 100 µM (inactive) | –
68 | Cc1nn2c3ccccc3nc2c2ccccc12 | – | > 100 µM (inactive) | inhibition ([1]; at 0.195 µM): 15.3%
69 | O=C(CCSc1nnc(-c2ccncc2)o1)Nc1ccc(Cl)cc1 | – | 8.46 µM | inhibition ([1]; at 12.5 µM): 86.9%
70 | CC(N=Cc1cccc(O)c1O)c1ccccc1 (stereo unspecified) | 98% | 9.56 µM | –
71 | CCc1cc2c(=O)[nH]c(-c3ccccn3)nc2s1 | 86.2% | 23.6 µM | –
72 | Cc1ccc(C(=O)c2c(C)oc3c2C(=O)C(=O)c2ccccc2-3)cc1 | 95.5% | 43.6 µM | –
73 | O=[N+]([O-])c1ccc(O)c2ncccc12 | – | 0.483 µM | inhibition ([1]; at 12.5 µM): 99.4%
74 | Cc1ccccc1C(=O)O/N=C/c1c(N2CCOCC2)n(C)c2ccccc12 | 57.1% | 50.7 µM | –
75 | O=c1oc2ccccc2cc1-c1cn2cccnc2n1 | – | > 100 µM (inactive) | inhibition ([1]; at 12.5 µM): 13.2%
76 | O=c1c2sc(-c3ccccc3)cc2nc2n1CCC2 | 83.4% | 14.6 µM | –
77 | CN(C)c1ccc(/C=C/c2ccc3ccccc3[n+]2C)cc1 | 85.8% | 22.3 µM | –
78 | Oc1c(CN2CCCCC2)cc(Br)c2cccnc12 | 99.8% | 7.22 µM | –
79 | CCOC(=O)c1c(/N=C/c2cccc([N+](=O)[O-])c2O)sc(C)c1C | 58.5% | 30.7 µM | –
80 | COc1ccc(OC)c(C2CC(=O)N3CN(c4cccc(Cl)c4)CSC3=C2C#N)c1 (stereo unspecified) | – | > 100 µM (inactive) | inhibition ([1]; at 25 µM): 15.2%
81 | O=[N+]([O-])c1ccc(Cl)c(S(=O)(=O)N2CCCCCC2)c1 | 58.1% | 31.8 µM | –
82 | CC/C(C)=N/Nc1cccc([N+](=O)[O-])c1 | 98.4% | 4.11 µM | –
83 | COc1ccc(C(=O)/C=C/N2CCCCC2)cc1OC | 91.2% | 29.4 µM | –
